Experiment: wn = mass fraction of the nth substance listed
Conditions: Liquid, Pycnometric method, w2 = 0.4981

FC(F)C(F)(F)F [pentafluoroethane] + FCF
Conditions	mass density [kg/m3]
357.15 K, 9042 kPa	773.5
357.15 K, 9048 kPa	773.4
357.15 K, 16243 kPa	919
357.15 K, 16254 kPa	918.9
357.15 K, 16277 kPa	919.1
358.15 K, 9284 kPa	773.4
358.15 K, 9290 kPa	773.3
358.15 K, 16617 kPa	918.9
358.15 K, 16628 kPa	918.8
358.15 K, 16652 kPa	919.1
359.15 K, 9527 kPa	773.3
359.15 K, 9532 kPa	773.3
359.15 K, 16990 kPa	918.8
359.15 K, 17003 kPa	918.7
359.15 K, 17027 kPa	919
360.15 K, 9770 kPa	773.3
360.15 K, 9775 kPa	773.2
360.15 K, 17365 kPa	918.7
360.15 K, 17377 kPa	918.7
360.15 K, 17401 kPa	918.9
361.15 K, 10013 kPa	773.2
361.15 K, 10019 kPa	773.1
361.15 K, 17739 kPa	918.6
361.15 K, 17752 kPa	918.6
361.15 K, 17776 kPa	918.8
362.15 K, 10256 kPa	773.2
362.15 K, 10262 kPa	773.1
362.15 K, 18113 kPa	918.5
362.15 K, 18127 kPa	918.5
362.15 K, 18151 kPa	918.7
363.15 K, 10501 kPa	773.1
363.15 K, 10506 kPa	773
363.15 K, 18487 kPa	918.4
363.15 K, 18501 kPa	918.4
363.15 K, 18526 kPa	918.6
364.15 K, 10745 kPa	773.1
364.15 K, 10751 kPa	773
364.15 K, 18862 kPa	918.4
364.15 K, 18876 kPa	918.3
364.15 K, 18899 kPa	918.5
365.15 K, 10990 kPa	773
365.15 K, 10996 kPa	772.9
365.15 K, 19236 kPa	918.3
365.15 K, 19250 kPa	918.3
365.15 K, 19274 kPa	918.4
366.15 K, 11235 kPa	772.9
366.15 K, 11241 kPa	772.9
366.15 K, 19610 kPa	918.2
366.15 K, 19625 kPa	918.2
366.15 K, 19649 kPa	918.4
367.15 K, 11480 kPa	772.9
367.15 K, 11486 kPa	772.8
367.15 K, 19985 kPa	918.1
367.15 K, 20000 kPa	918.1
367.15 K, 20025 kPa	918.3
368.15 K, 11726 kPa	772.8
368.15 K, 11732 kPa	772.7
368.15 K, 20360 kPa	918
368.15 K, 20375 kPa	918
368.15 K, 20400 kPa	918.2
369.15 K, 11972 kPa	772.8
369.15 K, 11979 kPa	772.7
369.15 K, 20734 kPa	917.9
369.15 K, 20750 kPa	917.9
369.15 K, 20776 kPa	918.1
370.15 K, 12219 kPa	772.7
370.15 K, 12225 kPa	772.6
370.15 K, 21109 kPa	917.8
370.15 K, 21125 kPa	917.8
370.15 K, 21150 kPa	918
371.15 K, 12465 kPa	772.6
371.15 K, 12472 kPa	772.6
371.15 K, 21484 kPa	917.7
371.15 K, 21500 kPa	917.7
371.15 K, 21525 kPa	917.9
372.15 K, 12712 kPa	772.6
372.15 K, 12719 kPa	772.5
372.15 K, 21859 kPa	917.6
372.15 K, 21875 kPa	917.6
372.15 K, 21901 kPa	917.8
373.15 K, 12959 kPa	772.5
373.15 K, 12966 kPa	772.5
373.15 K, 22234 kPa	917.5
373.15 K, 22250 kPa	917.6
373.15 K, 22277 kPa	917.8
374.15 K, 13207 kPa	772.5
374.15 K, 13213 kPa	772.4
374.15 K, 22609 kPa	917.5
374.15 K, 22625 kPa	917.5
374.15 K, 22654 kPa	917.7
375.15 K, 13454 kPa	772.4
375.15 K, 13461 kPa	772.3
375.15 K, 22984 kPa	917.4
375.15 K, 23000 kPa	917.4
375.15 K, 23029 kPa	917.6
376.15 K, 13702 kPa	772.3
376.15 K, 13709 kPa	772.3
376.15 K, 23359 kPa	917.3
376.15 K, 23375 kPa	917.3
376.15 K, 23406 kPa	917.5
377.15 K, 13950 kPa	772.3
377.15 K, 13957 kPa	772.2
377.15 K, 23734 kPa	917.2
377.15 K, 23750 kPa	917.2
377.15 K, 23780 kPa	917.4
378.15 K, 14198 kPa	772.2
378.15 K, 14205 kPa	772.2
378.15 K, 24109 kPa	917.1
378.15 K, 24125 kPa	917.1
378.15 K, 24155 kPa	917.3
379.15 K, 14447 kPa	772.2
379.15 K, 14454 kPa	772.1
379.15 K, 24484 kPa	917
379.15 K, 24500 kPa	917
379.15 K, 24531 kPa	917.2
380.15 K, 14696 kPa	772.1
380.15 K, 14702 kPa	772
380.15 K, 24858 kPa	916.9
380.15 K, 24875 kPa	916.9
380.15 K, 24906 kPa	917.1
381.15 K, 14944 kPa	772.1
381.15 K, 14951 kPa	772
381.15 K, 25233 kPa	916.8
381.15 K, 25250 kPa	916.8
381.15 K, 25282 kPa	917
382.15 K, 15194 kPa	772
382.15 K, 15200 kPa	771.9
382.15 K, 25608 kPa	916.7
382.15 K, 25625 kPa	916.7
382.15 K, 25657 kPa	916.9
383.15 K, 15443 kPa	772
383.15 K, 15449 kPa	771.8
383.15 K, 25983 kPa	916.6
383.15 K, 26000 kPa	916.6
383.15 K, 26033 kPa	916.8
384.15 K, 15692 kPa	771.9
384.15 K, 15699 kPa	771.8
384.15 K, 26358 kPa	916.5
384.15 K, 26375 kPa	916.5
384.15 K, 26408 kPa	916.7
385.15 K, 15942 kPa	771.8
385.15 K, 15948 kPa	771.7
385.15 K, 26733 kPa	916.4
385.15 K, 26750 kPa	916.5
385.15 K, 26784 kPa	916.6
386.15 K, 16192 kPa	771.8
386.15 K, 16198 kPa	771.7
386.15 K, 27107 kPa	916.3
386.15 K, 27125 kPa	916.4
386.15 K, 27159 kPa	916.6
387.15 K, 16442 kPa	771.7
387.15 K, 16448 kPa	771.6
387.15 K, 27482 kPa	916.2
387.15 K, 27500 kPa	916.3
387.15 K, 27533 kPa	916.5
388.15 K, 16692 kPa	771.6
388.15 K, 16698 kPa	771.5
388.15 K, 27856 kPa	916.1
388.15 K, 27874 kPa	916.2
388.15 K, 27907 kPa	916.4
389.15 K, 16942 kPa	771.6
389.15 K, 16948 kPa	771.5
389.15 K, 28231 kPa	916
389.15 K, 28249 kPa	916.1
389.15 K, 28282 kPa	916.3
390.15 K, 17192 kPa	771.5
390.15 K, 17198 kPa	771.4
390.15 K, 28605 kPa	915.9
390.15 K, 28624 kPa	916
390.15 K, 28657 kPa	916.2
391.15 K, 17442 kPa	771.4
391.15 K, 17448 kPa	771.3
391.15 K, 28979 kPa	915.8
391.15 K, 28998 kPa	915.9
391.15 K, 29032 kPa	916.1
392.15 K, 17692 kPa	771.4
392.15 K, 17698 kPa	771.3
392.15 K, 29354 kPa	915.7
392.15 K, 29373 kPa	915.8
392.15 K, 29407 kPa	916
393.15 K, 17943 kPa	771.3
393.15 K, 17949 kPa	771.2
393.15 K, 29728 kPa	915.6
393.15 K, 29782 kPa	915.9
394.15 K, 18193 kPa	771.3
394.15 K, 18199 kPa	771.1
395.15 K, 18444 kPa	771.2
395.15 K, 18450 kPa	771.1
396.15 K, 18701 kPa	771
397.15 K, 18951 kPa	770.9

Source: the NIST ThermoML archive (doi:10.1007/s10765-010-0766-0)
